Results published in US20220213198A1, “METHOD OF TREATMENT” (The Council of the Queensland Institute of Medical Research, priority 2019, published 2022).

Assays:
MR1 / MAIT cells = conditions: cited from earlier work
LWT1 melanoma cells = assay: LWT1 experimental lung metastasis model; type: in vivo, mouse; conditions: day 14
Experimental: FIG. 2. Up-regulation of MR1 on B16F10 cells increases lung metastases that is dependent on MAIT cells. (A) The schematic and timeline of expanding MAIT cells from splenocytes derived from C57BL/6 WT mice with IL-2 and 5-OP-RU, for sorting and adoptive transfer into tumor-bearing mice. (B, C) Groups of WT or MR1^−/− or Rag2cγ^−/− mice (n=5-6/group) were injected i.v. with (B) 1×10^5 or (C) 1×10^4 B16F10 melanoma cells. In some groups, sorted MAIT or T conventional cells (cT) (non-MAIT αβ^+ T cells) (2×10^5 cells/mouse) from C57BL/6 (B) WT or (C) TCRδ^−/− mice were i.v. injected into the indicated groups of mice one day before tumor inoculation. (C) One group of mice received i.v injection of media alone as a control. (B, C) On day 14 relative to tumor cell inoculation, lungs were harvested and the metastatic burden was quantified by counting colonies on the lung surface. Data presented as mean±SEM. (D) B16F10 or LWT1 melanoma cells were stimulated in vitro with DMSO or 5-OP-RU (100 nM) for 4 hours before cell surface MR1 expression was determined by flow cytometry. […] Fourteen days later relative to tumor cell inoculation, lungs were harvested and the metastatic burden was quantified by counting colonies on the lung surface. […] Significant differences between groups as indicated by crossbars were determined using a one-way ANOVA followed by Tukey's post-hoc test (B, E, F), *p<0.05, **p<0.01, ****p<0.0001
FIG. 6. […] (A-D) On day 14, lungs were harvested and the metastatic burden was quantified by counting colonies on the lung surface. […] (E, F), Mice were monitored for tumor growth (calculated by the product of 2 perpendicular axes). […] Significant differences between groups as indicated by crossbars were determined by a one-way ANOVA followed by Tukey's post-hoc test (A, B) or a Mann-Whitney test (C, […]), *p<0.05, **p<0.01, ***p<0.001.
The indicated numbers of B16F10 and LWT1 cells were injected intravenously (i.v.) into the tail vein of WT or gene-targeted mice. […] Lungs were harvested on day 14, and surface tumor nodules were counted under a dissection microscope. […]

For CC(=O)C=Nc1c(NC[C@H](O)[C@H](O)[C@H](O)CO)[nH]c(=O)[nH]c1=O [5-OP-RU], the “effect on MAIT cell activation” value (MR1 / MAIT cells; background statement) is listed as “one of the most potent stimulatory MAIT cell antigens”, the “number of lung metastases” value (LWT1 melanoma cells; MR1-/- mice i.v. injected with pre-treated LWT1, vs DMSO-treated) is listed as “this increase was lost” and the “number of lung metastases” value (LWT1 melanoma cells; WT mice i.v. injected with LWT1 pre-treated 100 nM 4 h, vs DMSO-treated) is listed as “significantly increased”.

B1: 8F2.F9: anti-MR1 blocking antibody from hybridoma clone 8F2.F9, IgG1 isotype; heavy chain SEQ ID NO: 14, light chain SEQ ID NO: 18 (antibody, listed as Mus musculus, V domains shown)
VH: MKFSWVIFFLMAVVTGVNSEVQLQQSVAELVRPGASVKLSCTASGFNIKNTYMHWVKKRPELGLEWIGRIDPANGNTNFAPKFQGKATITADTSSNTAYLQLSSLTSEDTAIYYCPRGSGNYYFDYWGQGTTLTVSS
VL: MSSAQFLGLLLLCFQGTRCDIQMTQTTSSLSASLGDRVTISCRASQDISNYLNWYQQKPDGPVKLLIYYTSRLHSGVPSRFSGSGSGTDYSLTINNLAQEDIATYFCQQGNTLPYTFGGGTKLEIK
For B1, the “blocking of MAIT cell interaction with MR1” value (MR1 / MAIT cells; stated as known) is given as “block MAIT cells from interacting with MR1” and the LWT1 lung metastases (LWT1 melanoma cells; 250 μg/mouse i.p. days -1, 0 and 3, vs cIg) is given as “significantly reduced”.
